# Results taken from patent US20050203059A1, “Methods and compositions for treatment of ischemia” (priority 2002, published 2005).
# Experiments:
# [1] = tested on: rat hippocampi cells; experiment: GSK3 inhibitor protection of rat hippocampi cells from glutamate induced damage (Trypan Blue count); assay type: cell-based; parameters: Cells Surviving (%) Without Glutamate (control): concentration or dose not given beside the values; conditions: rat hippocampal neurons, average of 1 to 4 replications; for Cells Surviving (%) With Glutamate: 200 μM glutamic acid for 5 minutes, counted 20 to 24 hours later; for Cells Surviving (%) Without Glutamate (control): not exposed to glutamic acid
# Procedure: Hippocampi were dissected from embryonic day 18-19 rats. The tissue was collected in Hibernate™ media (Gibco BRL) and minced into 1 mm pieces. The tissue was dissociated using the Papain Dissociation System (Worthington Biochemical Corporation). Following isolation the cells were suspended in serum-free media composed of Neurobasal™ (Gibco BRL), 2% B27 supplement (Gibco BRL), L-glutamine and antibiotics. Cells were plated in 12 well plates tissue culture dishes coated with poly-L-lysine at a concentration of 7.5×10^4 cells per well. Following 10-14 days at 37° C. in 5% CO2, the GSK3 inhibitor compounds set forth below were added. Four to eight hours following compound addition, the conditioned media was removed from the cells and the cultures were stored at 37° C. […] The cultures were then either exposed for 5-minutes at room temperature to 200 μM glutamic acid in the same HBSS, or not exposed to glutamic acid as a control. Following exposure, the cultures were rinsed three times with the buffer and then returned to their original conditioned media containing the GSK3 inhibitor compounds. Twenty to 24 hours following glutamic acid exposure, the cultures were rinsed in HBSS and exposed for 10 minutes to Trypan Blue. This dye is taken up by dead cells. The cultures were rinsed then fixed for 30 minutes in 4% paraformaldehyde. The number of live and dead (blue) large neurons are counted (at least 200 cells from each well) by phase contrast microscopy and photographed, and the percentage of surviving cells was determined. […] The results are shown in the following Table 2 as the average of 1 to 4 replications: […]
# [2] = tested on: GSK3; experiment: Cell-based glycogen synthase assay for GSK3 inhibitory activity (CHO-HIRC cells); conditions: read-out: EC50 (glycogen synthase activity stimulated to 50% of the maximal level), 20 minutes incubation
# Procedure: Likewise, the ability of GSK3 inhibitor compounds to potentiate insulin signaling by activating glycogen synthase can be readily ascertained using a cell-based glycogen synthase activity assay. This assay employs cells that respond to insulin stimulation by increasing glycogen synthase activity, such as the CHO-HIRC cell line, which overexpresses wild-type insulin receptor (˜100,000 binding sites/cell). […] The assay can be carried out by incubating serum-starved CHO-HIRC cells in the presence of various concentrations of compounds of the present invention in the medium, followed by cell lysis at the end of the incubation period. […] The concentration of candidate GSK3 inhibitor that increased glycogen synthase activity to half of its maximal level (i.e., the EC50) can be calculated by fitting a four parameter sigmoidal curve using routine curve fitting methods that are well known to those having ordinary skill in the art.
# CHO-HIRC cells are maintained in 10 cm tissue culture plates in Ham's F12 medium/10% dialyzed fetal bovine serum. Cells from a confluent 10 cm plate are harvested and divided into the 6 wells of a 6-well tissue culture plate to a final volume of 2 ml of medium. The cells are left to grow at 37° C. for 24 hours. The cells are then washed three times in Ham's F12 medium containing no fetal bovine serum, and finally the cells are left for a further 24 hours at 37° C. in 2 ml of the serum-free medium.
# At the end of this time, 20 μl of compound dissolved in DMSO is added to each well and incubated at 37° C. After 20 minutes the medium is removed and the cells are washed once in PBS at room temperature and then rapidly frozen in the plates in liquid nitrogen. […] Cells are scraped from the plates and frozen in Eppendorf tubes on dry ice. Lysates are then thawed and refrozen on dry ice.
# After rethawing, lysates are spun at 14,000 g for 15 minutes. The supernatants are then removed and stored on ice. […] Reactions are incubated at 30° C. for 30 minutes and then spotted onto a 2 cm square 31ET chromatograph paper (Whatman).
# Filters are added to 5 ml of liquid scintillant and counted in a liquid scintillation counter. The percentage of the total glycogen synthase that is active in any lysate is expressed as 100× (cpm minus glucose-6-phosphate)/(cpm plus glucose-6-phosphate). Such values are determined in duplicate for 5 different concentrations of compound and for DMSO alone, and the values are then plotted against the logarithm of the concentration. The concentration of compound which stimulates glycogen synthase activity to 50% of the maximal level is determined by fitting a sigmoidal curve to the plotted data. The maximal level is defined as that level to which glycogen synthase activity tends asymtotically as the concentration of test compound increases substantially beyond the EC50.
# [3] = Blood brain barrier penetration / plasma drug levels after intravenous dosing in CD rats; assay type: in vivo, rat; conditions: 10 mg/kg intravenously; for Brain (at end of study) drug level: brains isolated at 150 minutes post administration; for AUC / Cmax / Tmax / half-life / Vd / concentration at 0 min / concentration at 7 min / concentration at 20 min / concentration at 40 min / concentration at 70 min / concentration at 100 min / concentration at 150 min: rat, plasma, iv; for Vd: read-out: Vss
# Procedure: GSK3 inhibitor blood brain barrier penetration may generally be measured by administering a GSK3 inhibitor compound formulated in 15% captisol/20 mM sodium citrate to a final dose of 10 mg/kg intravenously through a jugular catheter into 250 g CD rats. At 150 minutes post administration brains from the rats were isolated and fast frozen. GSK3 inhibitor plasma levels in the isolated material were established using standard techniques.
Compound,Cells Surviving (%) With Glutamate [1],Cells Surviving (%) Without Glutamate (control) [1],EC50 [2],further results
Nc1nc(NCCNc2ncc(-c3ncc[nH]3)c(-c3ccc(F)cc3Br)n2)ccc1[N+](=O)[O-] [Compound S],50%,95%,0.22 µM,–
Nc1nc(NCCNc2ncc(NC(=O)NCCN3CCOCC3)c(-c3ccc(Cl)cc3Cl)n2)ccc1[N+](=O)[O-] [D],60%,96%,3 µM,–
COCCNC(=O)Cn1c(=O)n(C2CCN(C(=O)N3CCc4ccccc4C3)CC2)c2ccccc21 [E],73%,88%,–,–
FC(F)(F)c1ccc(NCCNc2ccc(-c3ncc[nH]3)c(-c3ccc(Cl)cc3Cl)n2)nc1 [F],51%,96%,–,–
Cc1ccc(-c2nc(NCCNc3ccc([N+](=O)[O-])c(N)n3)ncc2-c2ncc[nH]2)c(Br)c1 [G],65%,94%,0.053 µM,CL [3]: 52 [ml/min]/kg; Brain (at end of study) drug level [3]: <LOQ; AUC [3]: 3180 ng·h/mL; Cmax [3]: 4600 ng/mL; Tmax [3]: ~0 h; half-life [3]: 31 min; Vd [3]: 2.3 L/kg; concentration at 0 min [3]: < 20 ng/mL; concentration at 7 min [3]: 4050 ng/mL; concentration at 20 min [3]: 3200 ng/mL; concentration at 40 min [3]: 1330 ng/mL; concentration at 70 min [3]: 796 ng/mL; concentration at 100 min [3]: 414 ng/mL; concentration at 150 min [3]: 113 ng/mL
O=[N+]([O-])c1ccc(NCCNc2ccc(-c3ncc[nH]3)c(-c3ccc(Cl)cc3Cl)n2)nc1 [H],67%,94%,0.121 µM,–
N#Cc1ccc(NCCNc2ncc(-c3ccncc3)c(-c3ccc(Cl)cc3Cl)n2)nc1 [I],56%,94%,0.184 µM,CL [3]: 114 [ml/min]/kg; Brain (at end of study) drug level [3]: <LOQ; AUC [3]: 145 ng·h/mL; Cmax [3]: 1200 ng/mL; Tmax [3]: ~0 h; half-life [3]: 42 min; Vd [3]: 6.8 L/kg; concentration at 0 min [3]: < 20 ng/mL; concentration at 7 min [3]: 1190 ng/mL; concentration at 20 min [3]: 1160 ng/mL; concentration at 40 min [3]: 614 ng/mL; concentration at 70 min [3]: 440 ng/mL; concentration at 100 min [3]: 358 ng/mL; concentration at 150 min [3]: 106 ng/mL
O=[N+]([O-])c1ccc(NCCNc2ncc(-c3ncc[nH]3)c(-c3ccc(Cl)cc3Cl)n2)nc1 [J],57%,95%,0.375 µM,–
Nc1nc(NCCNc2ncc(CO)c(-c3ccc(Cl)cc3Cl)n2)ccc1[N+](=O)[O-] [K],73%,86%,0.147 µM,–
Nc1nc(NCCNc2ncc(-c3ncc[nH]3)c(-c3ccc(Cl)cc3Cl)n2)ccc1[N+](=O)[O-] [L],59%,90%,0.257 µM,–
Nc1nc(NCCNc2ncc(N3C(=O)CCC3=O)c(-c3ccc(Cl)cc3Cl)n2)ccc1[N+](=O)[O-] [M],61%,87%,0.085 µM,–
CN1CCN(c2cnc(NCCNc3ccc([N+](=O)[O-])c(N)n3)nc2-c2ccc(Cl)cc2Cl)CC1 [N],67%,91%,0.0534 µM,–
Nc1nc(NCCNc2ncc(-n3cc(Cl)ccc3=O)c(-c3ccc(Cl)cc3Cl)n2)ccc1[N+](=O)[O-] [O],61%,94%,0.133 µM,–
CNCC(=O)Nc1cnc(NCCNc2ccc([N+](=O)[O-])c(N)n2)nc1-c1ccc(Cl)cc1Cl [P],55%,91%,0.701 µM,–
CN(CCNc1ccc([N+](=O)[O-])c(N)n1)c1ncc(-c2ncc[nH]2)c(-c2ccc(Cl)cc2Cl)n1 [Q],67%,95%,0.017 µM,–
Nc1nc(NCCNc2ncc(-n3ccccc3=O)c(-c3ccc(Cl)cc3Cl)n2)ccc1[N+](=O)[O-] [R],61%,92%,0.014 µM,–
N#Cc1ccc(-c2nc(NCCNc3ccc([N+](=O)[O-])cn3)ncc2-n2ccnc2)cc1 [T],50%,95%,1.28 µM,–
Nc1nc(NCCNc2ncc(N3CCOCC3)c(-c3ccc(Cl)cc3Cl)n2)ccc1[N+](=O)[O-] [U],62%,93%,0.0735 µM,–
FC(F)(F)c1ccc(NCCNc2ncc(-c3ncc[nH]3)c(-c3ccc(Cl)cc3Cl)n2)nc1 [V],49%,94%,1.24 µM,–
Nc1nc(NCCNc2ncc(-n3cccn3)c(-c3ccc(Cl)cc3Cl)n2)ccc1[N+](=O)[O-] [W],61%,94%,0.0998 µM,–
Nc1nc(NCCNc2ncc(-c3ncc[nH]3)c(-c3ccc(F)cc3Cl)n2)ccc1[N+](=O)[O-] [X],50%,93%,0.424 µM,–
Nc1nc(NCCNc2ncc(-n3ccnc3)c(-c3ccc(Cl)cc3Cl)n2)ccc1[N+](=O)[O-] [Y],61%,94%,0.075 µM,–
"IGF1: IGF1, used as a control in the rat hippocampi cell survival test",51%,93%,–,–
